Columns and labels:
Type in all cases: in vivo, mouse
[1] = system: DBA/2J glaucoma mice; assay: IOP measurement (applanation tonometer) after transscleral ciliary body PDT in DBA/2J glaucoma mice
Method: All experiments were performed in accordance with the Association for Research in Vision and Ophthalmology Statement for the Use of Animals in Ophthalmic and Vision Research. C57BL/6 female mice aged 3 months (n=20) were used as the normal model. DBA/2J female mice aged 8 months (n=20) were used as the glaucoma mouse model. One eye of each animal was treated and the other eye served as a control (for both the normal and glaucoma models). Animals were housed in covered cages, were fed with a standard rodent diet ad libitum and were kept under constant 12 hour light-12 hour dark cycles. For general anesthesia, a mixture of ketamine (100 mg/kg) and xylazine (9 mg/kg) was administered intraperitoneally.
DBA/2J mice spontaneously develop essential iris atrophy, pigment dispersion, and glaucomatous changes. The IOP becomes elevated in most mice by the age of 9 months, which can be followed by ganglion cell loss, optic nerve atrophy and optic nerve cupping. As glaucoma developed, ganglion cell loss and mild cupping of the optic nerve were present in some animals by 11 months and in the majority of mice by the age of 22 months.
Verteporfin photosensitizer (Novartis Ophthalmics, Inc., Duluth, Ga.) was used in these experiments. The mice were systemically anesthetized prior to PDT, and the photosensitizer dye was administered to the animals by tail vain injections using a 30 G needle 5 minutes before laser irradiation. A dose of 2.0 or 4.0 mg/kg was used in C57BL/6 normal mice and of 1.0 mg/kg was used in DBA/2J mice. The laser irradiation to the ciliary body was applied transsclerally using a 600 μm optical fiber at a wavelength of light of 689 nm from a Diode Laser, with an irradiance of 1800 mW/cm^2 and a fluence of 100 J/cm^2 (Lumenis, Santa Clara, Calif.). Transscleral irradiation of the ciliary body was performed with applications for 360 degrees of the corneoscleral limbus in C57BL/6 normal mice and for 180 degrees in DBA/2J mice. In the C57BL/6 and DBA/2J mice, 16 and 8 spots, respectively, were irradiated to overlap with one another. In the eyes prepared for lectin labeling and terminal deoxynucleotide transferase-mediated nick end labeling (TUNEL) staining (a measure of apoptosis), PDT was performed in C57BL/6 mice to cover 180 degrees of the ciliary body at a 4.0 mg/kg verteporfin dose to compare the degree of staining between irradiated area and non-irradiated area. Retreatment was performed in C57BL/6 normal mice which had been treated with 2.0 mg/kg of verteporfin after the IOP measurement at post-PDT day 7 using the same light parameters.
The IOP was measured using a previously reported applanation tonometer (Ahamed et al. (2003) IOVS 44:ARVO E-Abstract 3336) (n=12 in DBA/2J mice, n=5 in C57BL/6 mice at each dose). The principle of applanation tonometry employs fiber-optic gauges which are designed around a Fabry-Perot interferometer (FPI) (FTI-10; FISO Technologies, Inc., Quebec, Canada). FPI consists of two mirrors facing each other, the space separating the mirrors being called the cavity length. Light reflected in the FPI is wavelength-modulated in exact accordance with the cavity length. […]
IOP was measured under general anesthesia. […]
As soon as the mice were anesthetized sufficiently, they were placed on a surgical platform. When the pressure sensor applanated a central area of mouse cornea under a dissecting microscope, the IOP (psi) was measured by the device 10 times automatically. […]

[2] = system: ciliary body; assay: Histology (light and electron microscopy) of ciliary body after PDT in C57BL/6 normal mice
Method: (§1) Eyes were enucleated at 6 hours (only DBA/2J), at 1 and 7 days after treatment, and at the end of IOP follow up (8 weeks after treatment)(n=2 in each group at each time point) and processed for light and transmission electron microscopic examination. The eyes were bisected behind the limbus, placed in modified Karnovsky's fixative at 4° C. overnight, and then transferred to 0.1 M cacodylate buffer at pH 7.4. Ciliary body specimens were observed by stereomicroscopy at 1 day after PDT for normal mice in the 4.0 mg/kg dose-treated group. Tissues were postfixed in aqueous 2% osmium tetroxide, stained en bloc with Uranyl Acetate, dehydrated in graded ethanols, and embedded in Epon. One-micrometer-thick sections were stained with 0.5% toluidine blue in borate buffer for light microscopy and examined using a photomicroscope (Leica Microsystems, Wetzlar, Germany). Thin sections were stained with aqueous uranyl acetate, and Sato's lead stain, and examined with a transmission electron microscope (CM 10; Phillips, Eindhoven, The Netherlands).

[3] = system: ciliary body; assay: Histology (light and electron microscopy) of ciliary body after PDT in DBA/2J mice; settings: 1.0 mg/kg
Method: as §1

[4] = system: ciliary body; assay: TUNEL staining after PDT in DBA/2J mice; settings: 1.0 mg/kg, 180 degrees; 1 day after PDT
Method: Lectin labeling of vascular endothelial cells and TUNEL staining (to examine apoptotic cells) was performed 1 day after PDT in C57BL16 normal mice (n=2). In DBA/2J mice, only TUNEL staining was performed. PDT was performed to cover 180 degrees of the ciliary body at a dose of 4.0 mg/kg (C57BL/6) and 1.0 mg/kg (DBA/2J) verteporfin to compare the degree of staining between irradiated area and non-irradiated area. Non-operated fellow eyes (n=2) were used as controls. After sufficient anesthesia, the animals were perfused with 8 mL phosphate buffered saline (PBS) administered via a catheter in the left ventricle. After PBS perfusion, fluorescein-isothiocyanate (FITC)-coupled Concanavalin A lectin (20 μg/mL in PBS, pH 7.4, 5 mg/kg BW)(Vector Labs, Burlingame, Calif.) was then perfused to stain vascular endothelial cells. Four percent paraformaldehyde in 0.1 PBS (pH 7.4) was perfused following PBS perfusion to remove residual unbound lectin. Enucleated eyes were fixed in 4% paraformaldehyde in 0.1 PBS overnight and were immersed in graded sucrose in 0.1 PBS. The samples were embedded in optimal cutting temperature (OCT) compound (Tissue-Tek, Tokyo, Japan), and sectioned vertically at 10-μm. TUNEL staining was performed according to the manufacturer's protocol (Fluorescein In Situ Apoptosis Detection Kit; CHEMICON International, Temecula, Calif.) to detect retinal cell death induced by PDT. […]

verteporfin
mean IOP of treated eyes ([1]; 1.0 mg/kg i.v., 689 nm, 100 J/cm^2, 180 degrees, 1 day after treatment): 15.9±5.7 mmHg
difference of mean IOP between fellow control eyes and treated eyes ([1]; 1.0 mg/kg, 180 degrees, 1 day after PDT): no significant difference
mean IOP of treated eyes ([1]; 1.0 mg/kg, 180 degrees, 3 days after PDT): 9.5±3.4 mmHg
reduction of mean IOP of treated eyes compared to fellow control eyes ([1]; 1.0 mg/kg, 180 degrees, 3 days after PDT, p<0.05): 40.8%
IOP reduction ([1]; 1.0 mg/kg, treatment of 180°): significant reduction of IOP
ciliary body histological findings ([2]; 2.0 mg/kg and 4.0 mg/kg, 7 days after PDT): ciliary body vessels had recanalized
ciliary body histological findings ([2]; 2.0 mg/kg, 1 day after PDT): Most ciliary body blood vessels in treated eyes appeared thrombosed and all capillaries were damaged
ciliary body histological findings ([2]; 4.0 mg/kg, 1 day after PDT): vascular injury, thrombosis with vacuolization of endothelial cells, extravasculum of leukocyte and erythrocytes and severe edema
ciliary body histological findings ([3]; 8 weeks after PDT): ciliary body blood vessels were recanalized, and edema had disappeared
ciliary body histological findings ([3]; 6 hours after PDT): most ciliary body blood vessels in the treated eyes were thrombosed
ciliary body histological findings ([3]; 1 day after PDT): most ciliary body blood vessels were still thrombosed, and the ciliary epithelium and stroma were severely damaged and edematous
ciliary body histological findings ([3]; 7 days after PDT): Some of ciliary body blood vessels were still thrombosed
TUNEL positive (apoptotic) cells [4]: Many TUNEL positive cells were seen in the ciliary process in both the treated and untreated sides of the treated eye

— patent US10272261B2, “Methods and compositions for treating ocular glaucoma” (Massachusetts Eye and Ear Infirmary, priority 2004, dated 2019)
